Results published in ChEMBL document CHEMBL5465560, “Selectivity Literature for EUbOPEN Chemogenomic Library” (2024).

Tests used:
[1] = target: Mitogen-activated protein kinase 14 (Homo sapiens, UniProt Q16539); details: at 10 µM
[2] = target: Cell division cycle 7-related protein kinase (Homo sapiens, UniProt O00311); experiment: Selectivity interaction (LanthaScreen Eu Kinase Binding Assay) EUB0001632a CDC7; details: at 10 µM
[3] = target: T1, Tyrosine-protein kinase ITK/TSK (Homo sapiens) (UniProt Q08881); experiment: Selectivity interaction (Kinase panel (Z-LYTE Assay)) EUB0001632a ITK; details: at 10 µM
T1 sequence (whole entry): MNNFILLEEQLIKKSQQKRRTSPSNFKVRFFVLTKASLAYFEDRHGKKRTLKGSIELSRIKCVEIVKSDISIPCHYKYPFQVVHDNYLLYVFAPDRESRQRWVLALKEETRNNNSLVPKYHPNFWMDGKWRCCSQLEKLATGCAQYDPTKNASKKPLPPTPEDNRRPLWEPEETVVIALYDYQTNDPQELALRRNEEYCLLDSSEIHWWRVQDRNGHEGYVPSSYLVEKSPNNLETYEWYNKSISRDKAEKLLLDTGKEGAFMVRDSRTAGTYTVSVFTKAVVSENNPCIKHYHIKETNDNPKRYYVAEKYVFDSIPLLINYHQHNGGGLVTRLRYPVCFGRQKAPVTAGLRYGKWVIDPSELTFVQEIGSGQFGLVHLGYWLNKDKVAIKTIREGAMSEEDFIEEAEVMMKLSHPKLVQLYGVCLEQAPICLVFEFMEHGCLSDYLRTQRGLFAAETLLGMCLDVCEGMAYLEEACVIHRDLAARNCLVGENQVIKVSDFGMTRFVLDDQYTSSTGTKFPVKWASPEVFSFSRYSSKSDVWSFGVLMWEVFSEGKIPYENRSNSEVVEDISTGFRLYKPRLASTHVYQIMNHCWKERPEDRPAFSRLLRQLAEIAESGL

[4] = target: Serine/threonine-protein kinase Nek7 (Homo sapiens) (UniProt Q8TDX7); experiment: Selectivity interaction (ActivX KiNativ screen (kinase selectivity in THP-1 cell lysates)) EUB0000639a NEK7; type: subcellular; details: lysate, at 0.04 µM
Sequence of Serine/threonine-protein kinase Nek7 (Homo sapiens) (Q8TDX7 whole entry, looked up): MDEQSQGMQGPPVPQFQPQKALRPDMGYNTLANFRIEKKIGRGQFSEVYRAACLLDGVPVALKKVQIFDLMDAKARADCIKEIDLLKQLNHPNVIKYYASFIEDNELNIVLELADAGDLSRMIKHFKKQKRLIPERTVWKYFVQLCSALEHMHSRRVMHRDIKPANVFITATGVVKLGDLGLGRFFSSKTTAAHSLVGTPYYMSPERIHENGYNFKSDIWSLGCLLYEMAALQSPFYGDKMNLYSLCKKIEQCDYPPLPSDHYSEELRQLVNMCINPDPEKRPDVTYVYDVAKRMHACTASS

[5] = target: Mitogen-activated protein kinase kinase kinase kinase 1 (Homo sapiens) (UniProt Q92918); experiment: Selectivity interaction (KinomeScan (DiscoverX)) EUB0000607a MAP4K1; details: at 10 µM
Sequence of Mitogen-activated protein kinase kinase kinase kinase 1 (Homo sapiens) (Q92918 whole entry, looked up): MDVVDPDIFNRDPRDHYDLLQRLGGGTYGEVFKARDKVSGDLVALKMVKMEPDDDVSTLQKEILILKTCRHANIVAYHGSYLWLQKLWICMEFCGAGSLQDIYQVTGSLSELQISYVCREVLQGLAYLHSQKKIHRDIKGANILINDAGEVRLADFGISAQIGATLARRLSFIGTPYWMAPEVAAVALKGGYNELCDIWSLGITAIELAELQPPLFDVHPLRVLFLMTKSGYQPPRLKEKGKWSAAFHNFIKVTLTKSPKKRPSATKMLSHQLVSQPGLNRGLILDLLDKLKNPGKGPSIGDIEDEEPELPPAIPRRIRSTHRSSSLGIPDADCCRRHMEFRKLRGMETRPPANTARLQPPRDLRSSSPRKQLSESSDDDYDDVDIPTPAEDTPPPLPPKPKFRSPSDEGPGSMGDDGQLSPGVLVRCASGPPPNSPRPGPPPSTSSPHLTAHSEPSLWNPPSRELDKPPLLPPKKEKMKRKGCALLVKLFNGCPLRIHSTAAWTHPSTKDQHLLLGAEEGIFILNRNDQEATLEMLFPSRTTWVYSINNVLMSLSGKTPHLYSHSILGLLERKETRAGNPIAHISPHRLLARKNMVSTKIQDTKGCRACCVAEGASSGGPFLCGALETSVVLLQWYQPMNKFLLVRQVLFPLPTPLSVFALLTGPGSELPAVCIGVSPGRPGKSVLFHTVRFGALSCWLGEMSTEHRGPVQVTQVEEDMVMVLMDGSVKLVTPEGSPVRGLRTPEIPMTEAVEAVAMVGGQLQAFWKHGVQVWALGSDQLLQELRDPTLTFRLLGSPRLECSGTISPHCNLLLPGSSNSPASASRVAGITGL

[6] = target: T2, cGMP-dependent protein kinase 2 (Homo sapiens) (UniProt Q13237); experiment: Selectivity interaction (KinomeScan (DiscoverX)) EUB0000695a PRKG2; details: at 100 nM
T2 sequence (whole entry): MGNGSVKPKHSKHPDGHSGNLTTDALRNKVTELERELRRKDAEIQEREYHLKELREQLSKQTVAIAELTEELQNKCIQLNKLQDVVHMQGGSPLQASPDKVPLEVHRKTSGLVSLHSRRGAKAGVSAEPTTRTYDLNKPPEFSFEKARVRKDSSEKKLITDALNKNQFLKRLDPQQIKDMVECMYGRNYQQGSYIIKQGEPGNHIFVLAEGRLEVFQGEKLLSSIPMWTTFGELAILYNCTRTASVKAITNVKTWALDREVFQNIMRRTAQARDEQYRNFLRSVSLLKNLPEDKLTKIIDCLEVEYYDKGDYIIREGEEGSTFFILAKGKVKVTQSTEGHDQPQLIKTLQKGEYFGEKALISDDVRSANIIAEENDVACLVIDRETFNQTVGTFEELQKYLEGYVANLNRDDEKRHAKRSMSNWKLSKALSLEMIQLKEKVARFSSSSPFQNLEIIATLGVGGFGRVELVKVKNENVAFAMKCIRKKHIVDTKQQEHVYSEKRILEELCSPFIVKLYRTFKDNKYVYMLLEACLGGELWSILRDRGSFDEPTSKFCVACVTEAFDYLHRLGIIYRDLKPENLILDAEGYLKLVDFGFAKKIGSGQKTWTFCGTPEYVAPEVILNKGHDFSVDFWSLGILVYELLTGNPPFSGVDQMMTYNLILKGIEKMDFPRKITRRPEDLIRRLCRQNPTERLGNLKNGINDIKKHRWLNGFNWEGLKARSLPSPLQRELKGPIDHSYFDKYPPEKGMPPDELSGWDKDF

[7] = target: T3, 3-phosphoinositide-dependent protein kinase 1 (Homo sapiens) (UniProt O15530); experiment: Selectivity interaction (KinomeScan (DiscoverX)) EUB0000045b PDPK1
T3 sequence (whole entry): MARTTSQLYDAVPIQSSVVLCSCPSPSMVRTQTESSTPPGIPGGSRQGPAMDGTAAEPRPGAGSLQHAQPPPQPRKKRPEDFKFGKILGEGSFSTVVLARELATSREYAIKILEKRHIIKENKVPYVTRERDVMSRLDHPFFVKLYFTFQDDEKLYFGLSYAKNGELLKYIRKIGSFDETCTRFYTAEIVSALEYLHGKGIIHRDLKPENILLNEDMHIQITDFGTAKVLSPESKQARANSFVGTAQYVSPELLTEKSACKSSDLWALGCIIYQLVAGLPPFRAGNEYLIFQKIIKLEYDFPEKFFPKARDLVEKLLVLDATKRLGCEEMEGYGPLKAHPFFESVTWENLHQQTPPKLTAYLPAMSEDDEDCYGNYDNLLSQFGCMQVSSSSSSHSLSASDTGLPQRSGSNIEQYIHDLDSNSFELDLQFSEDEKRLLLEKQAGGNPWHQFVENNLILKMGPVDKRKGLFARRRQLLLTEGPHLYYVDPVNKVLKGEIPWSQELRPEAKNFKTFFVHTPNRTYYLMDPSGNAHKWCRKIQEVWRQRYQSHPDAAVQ

[8] = target: T4, Mitogen-activated protein kinase kinase kinase 2 (Homo sapiens) (UniProt Q9Y2U5); experiment: Selectivity interaction (KinomeScan (DiscoverX)) EUB0001619a MAP3K2; details: at 1 µM
T4 sequence (whole entry): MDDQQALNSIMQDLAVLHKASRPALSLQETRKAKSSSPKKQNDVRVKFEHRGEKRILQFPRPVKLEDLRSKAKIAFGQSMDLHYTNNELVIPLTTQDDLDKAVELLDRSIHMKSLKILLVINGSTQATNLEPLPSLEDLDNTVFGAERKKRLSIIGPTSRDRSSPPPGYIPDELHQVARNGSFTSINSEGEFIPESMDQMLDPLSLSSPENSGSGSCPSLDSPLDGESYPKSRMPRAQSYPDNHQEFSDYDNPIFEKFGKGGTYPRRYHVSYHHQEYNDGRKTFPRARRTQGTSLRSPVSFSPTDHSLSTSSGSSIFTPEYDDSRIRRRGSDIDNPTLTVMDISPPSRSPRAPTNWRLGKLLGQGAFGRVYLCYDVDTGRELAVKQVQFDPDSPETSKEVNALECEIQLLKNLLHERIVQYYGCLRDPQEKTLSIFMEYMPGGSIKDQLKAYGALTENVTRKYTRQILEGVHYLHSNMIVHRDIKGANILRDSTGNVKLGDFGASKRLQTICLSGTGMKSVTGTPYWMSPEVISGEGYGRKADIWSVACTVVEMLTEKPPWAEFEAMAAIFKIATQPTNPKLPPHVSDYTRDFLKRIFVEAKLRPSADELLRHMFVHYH

Sequence of Mitogen-activated protein kinase 14 (Q16539 whole entry): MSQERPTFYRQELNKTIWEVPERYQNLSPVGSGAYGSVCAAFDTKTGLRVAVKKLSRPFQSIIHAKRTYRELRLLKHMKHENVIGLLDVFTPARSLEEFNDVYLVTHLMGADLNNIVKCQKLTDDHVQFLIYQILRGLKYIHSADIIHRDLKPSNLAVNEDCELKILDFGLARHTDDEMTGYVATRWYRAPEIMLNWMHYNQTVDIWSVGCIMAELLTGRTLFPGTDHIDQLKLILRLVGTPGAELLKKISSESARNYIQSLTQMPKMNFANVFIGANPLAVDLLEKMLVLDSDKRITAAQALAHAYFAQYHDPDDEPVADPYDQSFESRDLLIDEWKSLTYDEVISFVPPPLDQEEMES
Sequence of Cell division cycle 7-related protein kinase (O00311 whole entry, looked up): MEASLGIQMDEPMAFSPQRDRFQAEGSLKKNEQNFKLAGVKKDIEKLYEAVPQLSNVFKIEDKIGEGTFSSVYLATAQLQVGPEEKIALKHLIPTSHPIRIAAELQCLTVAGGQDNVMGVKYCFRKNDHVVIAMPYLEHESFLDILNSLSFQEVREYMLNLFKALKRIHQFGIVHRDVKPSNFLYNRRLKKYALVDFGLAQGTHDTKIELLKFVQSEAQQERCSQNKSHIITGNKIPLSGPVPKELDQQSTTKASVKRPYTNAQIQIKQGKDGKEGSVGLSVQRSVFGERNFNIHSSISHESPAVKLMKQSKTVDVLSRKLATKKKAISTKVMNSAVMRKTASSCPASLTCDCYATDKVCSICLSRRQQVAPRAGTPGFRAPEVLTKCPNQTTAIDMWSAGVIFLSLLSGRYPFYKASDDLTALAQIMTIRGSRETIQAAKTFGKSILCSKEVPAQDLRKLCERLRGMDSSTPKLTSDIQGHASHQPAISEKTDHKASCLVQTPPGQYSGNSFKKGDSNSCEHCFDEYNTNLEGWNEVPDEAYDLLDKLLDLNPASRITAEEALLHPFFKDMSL

`Cc1cc([C@@H](C)Nc2ccccc2C(=O)O)c2nc(N3CCOCC3)cc(=O)n2c1` [AZD-6482] was tested. Which % of control [1] did it give?
Its % of control is 97%.

With `Cn1cc(-n2cnc3c(NCc4nc5cc(Cl)c(Cl)cc5[nH]4)nc(N4CCOCC4)nc32)cn1` as the compound, how does the % of inhibition [2] read?
Its % of inhibition is -5.05%.

And the % of control [3]?
Its % of control is -0.395%.

`CC[C@@H]1[C@H](F)C(=O)N[C@@H]1COc1nccc2cc(C(N)=O)c(OC)cc12` [ZIMLOVISERTIB] was tested. Which % of inhibition [4] did it give?
Its % of inhibition is 1.5%.

With `CNC(=O)Nc1ccc(-c2nc(N3CC4CCC(C3)O4)c3cnn(C4CCC5(CC4)OCCO5)c3n2)cc1` as the compound, how does the % of control [5] read?
Its % of control is 94%.

For `Cc1cc(F)c(C(=O)Nc2cccc(-c3nncn3C(C)C)n2)cc1-n1cnc(C2CC2)c1`, which % of control [6] is on record?
Its % of control is 88%.

Which % of control ([7]; at 1 µM) does the source give for `C=CC(=O)Nc1cc(-n2c(=O)ccc3cnc4ccc(-c5ccc(NS(C)(=O)=O)cc5)cc4c32)ccc1C` here?
The % of control was 100%.

What about the % of control ([7]; at 10 µM) of the same compound?
Its % of control is 100%.

Which % of control [8] does the source give for `N#Cc1cccc(-c2c[nH]c3ncnc(N4CCOCC4)c23)c1` here?
The % of control was 21%.
